Source: US20080267914A1, “Chemical Compounds” (priority 2005, published 2008)
pIC50: −log10 of the molar value.

What was measured:
[1] = tested on: HCV replicon cells Huh 9B; test: HCV replicon luciferase assay; type: cell-based, hepatitis C virus; conditions: Huh 9B replicon cells, 72 h incubation, luciferase readout
Procedure: (§1) HCV replicon cells Huh 9B (ReBlikon), containing the firefly luciferase—ubiquitin—neomycin phosphotransferase fusion protein and EMCV-IRES driven HCV polyprotein with cell culture adaptive mutations.
(§2) Cells were cultured at 37° C. in a 5% CO2 environment and split twice a week on seeding at 2×10E6 cells/flask on day 1 and 1×10E6 3 days later. Some 0.25 mg/ml G418 was added to the culture medium (125 ul per 25 ml) but not the assay medium.
(§3) The culture medium consisted of DMEM with […] glucose and glutamax (Gibco 61965-026) supplemented with 1× non-essential amino acids, penicillin (100 IU/ml)/streptomycin (100 μg/ml), FCS (10%, 50 ml) and 1 mg/ml G418 (Invitrogen cat no 10131-027) & 10% foetal calf serum.
(§4) A flask of cells was trypsinised and a cell count carried out. Cells were diluted to 100,000 cells/ml and 100 μl of this used to seed one opaque white 96-well plate (for the replicon assay) and one flat-bottomed clear plate (for the tox assay) for every seven compounds to be tested for IC50. Wells G12 and H12 were left empty in the clear plate as the blank. Plates were then incubated at 37° C. in a 5% CO2 environment for 24 h.
(§5) On the following day compound dilutions are made up in medium at twice their desired final concentration in a clear round bottomed plate. All dilutions have a final DMSO concentration of 1%.
(§6) Once the dilution plate had been made up, controls and compounds were transferred to the assay plate (containing the cells) at 100 μl /well in duplicate plates.
(§7) Exception: in the white (replicon) plate, no compound was added to wells A1 and A2 and 100 μl of 1% DMSO was added to these instead. In the clear (Tox) plate, wells E12 & F12 only contained the DMSO control. Plates were then incubated at 37° C. with 5% CO2 for 72 h.
At the end of the incubation time, the cells in the white plate were harvested by washing with 200 μl/well of warn (37° C.) PBS and lysed with 20 μl cell culture lysis buffer (Promega). After 5 min incubation @ RT, luciferin solution was added to the luciferase assay buffer (LARB at 200 μl per 10 ml LARB. The M injector of the microplate luminometer (Lmax, Molecular Devices) was primed with […] injections. Plate were inserted into the luminometer and 100 μl luciferase assay reagent was added by the injector on the luminometer. The signal was measured using a 1 second delay followed by a 4 second measurement programme. The IC50, the concentration of the drug required for reducing the replicon level by 50% in relation to the untreated cell control value, can be calculated from the plot of the percentage reduction of the luciferase activity vs. drug concentration.

[2] = tested on: HCV replicon cells Huh 9B; type: cell-based; conditions: Huh 9B replicon cells, 72 h incubation, methylene blue absorbance at 620 nm
Procedure: as §1, §2, §3, §4, §5, §6, §7
The clear plate was stained with 100 μl 0.5% methylene blue in 50% ethanol at RT for 1 h, followed by solvation of the absorbed methylene blue in 100 μl per well of 1% lauroylsarcosine. Absorbance of the plate was measured on a microplate spectrophotometer (Molecular Devices) and the absorbance for each concentration of compound expressed as a proportion of the relative DMSO control. The TD50, the concentration of drug required to reduce the total cell area by 50% relative to the DMSO controls can be calculated by plotting the absorbance at 620 nm vs drug concentration.

## c1nc(Nc2ccc(N3CCOCC3)cc2)c2cc(-c3ccc(OCCN4CCOCC4)cc3)ccc2n1 [Example 1, {6-[4-(2-Morpholin-4-yl-ethoxy)-phenyl]-quinazolin-4-yl}-(4-morpholin-4-yl-phenyl)-amine]
[1]; Hepatitis C virus
  pIC50: > 5.30
[2]
  Replicon TD5O: *** (>25 uM = ***)

## c1nc(Nc2ccc(N3CCOCC3)cc2)c2cc(-c3ccc(OCCCN4CCOCC4)cc3)ccc2n1 [Example 2, (4-Morpholin-4-yl-phenyl)-{6-[4-(3-morpholin-4-yl-propoxy)-phenyl]-quinazolin-4-yl}-amine]
[1]; Hepatitis C virus
  pIC50: > 6.00
[2]
  Replicon TD5O: ** (>10 uM = **)

## COc1ccc(-c2ccc3ncnc(Nc4ccc(N5CCOCC5)cc4)c3c2)cc1OC [Example 3, [6-(3,4-Dimethoxy-phenyl)-quinazolin-4-yl]-(4-morpholin-4-yl-phenyl)-amine]
[1]; Hepatitis C virus
  pIC50: > 6.00
[2]
  Replicon TD5O: ** (>10 uM = **)

## CCOc1ccc(-c2ccc3ncnc(Nc4ccc(N5CCOCC5)cc4)c3c2)cc1OCC [Example 4]
[1]
  pIC50: > 6.00
[2]
  Replicon TD5O: ** (>10 uM = **)

## Fc1cc(-c2ccc3ncnc(Nc4ccc(N5CCOCC5)cc4)c3c2)ccc1OCCN1CCOCC1 [Example 5, {6-[3-Fluoro-4-(2-morpholin-4-yl-ethoxy)-phenyl]-quinazoline-4-yl}-(4-morpholin-4-yl-phenyl)-amine]
[1]; Hepatitis C virus
  pIC50: > 6.00
[2]
  Replicon TD5O: *** (>25 uM = ***)
